IC50, fEC50 and inhibition in vivo data for 18 molecules are collected here from ChEMBL document CHEMBL3393054, “Development of 2-aminooxazoline 3-azaxanthenes as orally efficacious β-secretase inhibitors for the potential treatment of Alzheimer's disease” (Bioorg Med Chem Lett, 2015).

For test [1], the target named is Cathepsin D (Homo sapiens, UniProt P07339).
For test [2], the species on record is Rattus norvegicus. The note with it: dose 10 mg/kg; route oral.
The species entered for test [3] is Rattus norvegicus. The following applies: dose 10 mg/kg; route oral. This is another data set of the same source.
For test [4], the target named is T1, Beta-secretase 1 (Homo sapiens, UniProt P56817).
T1 sequence (P56817 whole entry): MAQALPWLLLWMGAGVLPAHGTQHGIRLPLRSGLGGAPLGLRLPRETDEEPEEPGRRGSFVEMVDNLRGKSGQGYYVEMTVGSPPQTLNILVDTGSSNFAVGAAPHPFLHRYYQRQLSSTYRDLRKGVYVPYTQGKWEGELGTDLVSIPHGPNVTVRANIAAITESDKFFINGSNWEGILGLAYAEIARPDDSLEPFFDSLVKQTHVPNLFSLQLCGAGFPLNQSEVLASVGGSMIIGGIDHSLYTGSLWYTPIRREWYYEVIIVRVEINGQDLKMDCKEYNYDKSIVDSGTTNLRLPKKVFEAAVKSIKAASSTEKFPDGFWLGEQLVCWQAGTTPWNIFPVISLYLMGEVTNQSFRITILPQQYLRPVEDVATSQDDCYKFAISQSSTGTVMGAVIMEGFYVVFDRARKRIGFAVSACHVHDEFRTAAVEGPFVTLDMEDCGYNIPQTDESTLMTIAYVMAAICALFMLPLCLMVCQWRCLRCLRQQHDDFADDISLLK
For test [5], the target named is T1, Beta-secretase 1. The source holds these as a separate data set.
Test [6] is filed under the species Rattus norvegicus. Description: animal or person. The following applies: Sprague-Dawley, Cerebrospinal fluid, po, 4 h, read-out: INH.

Chain of Cathepsin D (P07339 65-162 limits assumed): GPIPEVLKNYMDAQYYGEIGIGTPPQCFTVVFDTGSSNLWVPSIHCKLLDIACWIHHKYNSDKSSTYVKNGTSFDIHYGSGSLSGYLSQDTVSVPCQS
Chain of Cathepsin D (P07339 169-412 limits assumed): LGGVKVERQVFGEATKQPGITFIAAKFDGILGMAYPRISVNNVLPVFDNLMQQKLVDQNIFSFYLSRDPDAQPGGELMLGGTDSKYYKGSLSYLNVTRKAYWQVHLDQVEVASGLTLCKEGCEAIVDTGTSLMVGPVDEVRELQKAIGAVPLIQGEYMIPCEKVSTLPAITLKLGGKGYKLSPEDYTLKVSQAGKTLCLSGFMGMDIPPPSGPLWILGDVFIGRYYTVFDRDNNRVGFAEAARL

As to `NC1=N[C@@]2(CO1)c1cc(-c3cccnc3F)ccc1Oc1cnc(C3CCOCC3)cc12`, the 50% inhibitory concentration (IC50) (in general, the midpoint of a concentration-inhibition curve) is 3.39 µM in test [1], 0.0495 µM in test [4] and 0.0071 µM in test [5]. The figures for the fEC50 in test [2] and in test [3] were 659 nM and 339 nM, respectively.
For `NC1=N[C@@]2(CO1)c1cc(-c3cccnc3F)ccc1Oc1cnc(N3CCOCC3)cc12`, the IC50 came out at 0.6 µM in test [1] and 0.0205 µM in test [4].
On to `NC1=N[C@@]2(CO1)c1cc(-c3cccnc3F)ccc1Oc1cnc(N3CC[C@H](F)C3)cc12`, for which the IC50 in test [1] was 2.22 µM.
Turning to `CC1(C)C=C(c2cc3c(cn2)Oc2ccc(-c4cccnc4F)cc2[C@@]32COC(N)=N2)CCO1`, the results for the IC50 in test [1], in test [4] and in test [5] were 0.71 µM, 0.0074 µM and 0.0009 µM, respectively. Moreover, the results for the fEC50 in test [2] and in test [3] were 57 nM and 34 nM, respectively. Besides, the inhibition in vivo at 10 mg/kg in test [6] came to 76%.
`NC1=N[C@@]2(CO1)c1cc(-c3cccnc3F)ccc1Oc1cnc(-c3ccccc3)cc12`: the IC50 was found to be 0.65 µM in test [1], 0.0253 µM in test [4] and 0.0014 µM in test [5].
As to `NC1=N[C@@]2(CO1)c1cc(-c3cccnc3F)ccc1Oc1cnc([C@@H]3CCCCO3)cc12`, the IC50 in test [1] was 11.6 µM.
With `NC1=N[C@@]2(CO1)c1cc(-c3cccnc3F)ccc1Oc1cnc(N3CCC(F)(F)C3)cc12`, the IC50 in test [1] is 0.44 µM; in test [4], 0.0041 µM. The fEC50 in test [2] came to 38 nM; in test [3], 32 nM.
Turning to `NC1=N[C@@]2(CO1)c1cc(-c3cccnc3F)ccc1Oc1cnc(C3CCCOC3)cc12` (some centres undefined), the IC50 was found to be 5.8 µM in test [1], 0.123 µM in test [4] and 0.0113 µM in test [5].
With `Cc1cc(-c2cc3c(cn2)Oc2ccc(-c4cccnc4F)cc2[C@@]32COC(N)=N2)ccn1`, the IC50 amounted to 3.87 µM in test [1], 0.015 µM in test [4] and 0.0024 µM in test [5]. In addition, the fEC50 amounted to 62 nM in test [2] and 30 nM in test [3]. Moreover, in test [6], the inhibition in vivo at 10 mg/kg is 60%.
In the case of `NC1=N[C@@]2(CO1)c1cc(-c3cccnc3F)ccc1Oc1cnc(C3=CCOCC3)cc12`, the IC50 in test [1] was found to be 0.64 µM; in test [4], 0.0042 µM; in test [5], 0.0007 µM. Further, the fEC50 is listed as 60 nM in test [2] and 27 nM in test [3].
For `NC1=N[C@@]2(CO1)c1cc(-c3cccnc3F)ccc1Oc1cnc(-c3ccncc3)cc12`, the results for the IC50 in test [1], in test [4] and in test [5] were 3.19 µM, 0.016 µM and 0.0025 µM, respectively. The figures for the fEC50 in test [2] and in test [3] were 745 nM and 365 nM, respectively. Besides, in test [6], the inhibition in vivo at 10 mg/kg amounted to 56%.
With `CC1(C)CN(c2cc3c(cn2)Oc2ccc(-c4cccnc4F)cc2[C@@]32COC(N)=N2)CCO1`, the IC50 came out at 0.53 µM in test [1], 0.022 µM in test [4] and 0.004 µM in test [5].
For `NC1=N[C@@]2(CO1)c1cc(-c3cccnc3F)ccc1Oc1cnc(C3=CCCOC3)cc12`, the IC50 in test [1] is 1.08 µM; in test [4], 0.0079 µM; in test [5], 0.0005 µM. For the same molecule, the fEC50 in test [2] amounted to 31 nM; in test [3], 16 nM.
For the molecule `NC1=N[C@@]2(CO1)c1cc(-c3cccnc3F)ccc1Oc1cnc(N3CC[C@@H](F)C3)cc12`, the IC50 in test [1] was 0.68 µM.
Consider `NC1=N[C@@]2(CO1)c1cc(-c3cccnc3F)ccc1Oc1cnc(N3CCC(F)(F)CC3)cc12`, for which the IC50 is 0.14 µM in test [1] and 0.0087 µM in test [4]. In addition, in test [2], the fEC50 is recorded as 54 nM.
Molecule `NC1=N[C@@]2(CO1)c1cc(-c3cccnc3F)ccc1Oc1cnc([C@H]3CCCCO3)cc12` yielded an IC50 in test [1] of 1.04 µM.
As for `NC1=N[C@@]2(CO1)c1cc(-c3cccnc3F)ccc1Oc1cnc(-c3ccccn3)cc12`, the values for the IC50 in test [1], in test [4] and in test [5] were 4.1 µM, 0.0266 µM and 0.0038 µM, respectively.
Turning to `NC1=N[C@]2(CO1)c1cc(C3=CCOCC3)ccc1Oc1ccc(-c3cccnc3F)cc12`, the midpoint of inhibition in test [4], the IC50, lay at 0.0185 µM.
